Assays:
[1] = tested on: HCT116 (colorectal cancer) cells; assay: Cell counting with trypan blue (cell number / cytostasis and cell viability) in HCT116 cells; format: cell-based; conditions: 48 hours
[2] = tested on: A549 (lung cancer) cells; assay: Cell counting with trypan blue (cell number / cytostasis and cell viability) in A549 cells; format: cell-based
Method: The cytostatic effect upon administration of 6-β-naltrexol (6BN) and naltrexone (NTX) to A549 (lung cancer) and HCT116 (colorectal cancer) cells was studied in vitro. Firstly, A549 and HCT116 cells were seeded into 6-well plates at a density of 2×10^5/well and left to adhere overnight. Cells were then cultured with 0.001 μM, 0.01 μM, 0.1 μM or 1 μM of 6BN or NTX for 48 hours. Experiments were performed alongside a control where cells were not administered with 6-β-naltrexol or naltrexone (FIG. 1).
The viability of cells was then measured by cell counting using trypan blue as a way of discriminating live and dead cells. Cytostasis was indicated by a reduction in cell number and no associated reduction in cell viability.
Next, the effect of co-administration of low dose (10 nM) or high dose (10 μM) 6-β-naltrexol or naltrexone (NTX) alongside calcitriol was investigated. The cytostatic and cytotoxic effect was investigated in both A549 and HCT116 cells. A549 and HCT116 cells were seeded into 6-well plates at a density of 2×10^5/well and left to adhere overnight. The following day low or high dose 6BN or NTX was added to cells in isolation or in combination with calcitriol and incubated for 48 hours. A549 cells were co-administered with 10 nM calcitriol, whereas HCCT116 cells were co-administered 10 nM calcitriol.
Cell viability and cytostasis were then determined as described in example 1.

O=C1CC[C@@]2(O)[C@H]3Cc4ccc(O)c5c4[C@@]2(CCN3CC2CC2)[C@H]1O5 [NTX, naltrexone, reference compound]
cell viability upon combination with calcitriol ([1]; HCT116 cells, 10 nM NTX with 100 nM calcitriol): reduces the viability

C=C1/C(=C\C=C2/CCC[C@]3(C)[C@@H]([C@H](C)CCCC(C)(C)O)CC[C@@H]23)C[C@@H](O)C[C@@H]1O [Calcitriol, calcitriol, reference compound]
cytostatic effect of calcitriol in isolation ([2]; lung cancer cells, calcitriol administered in isolation): no independent cytostatic effect

Oc1ccc2c3c1OC1[C@H](O)CC[C@@]4(O)[C@@H](C2)N(CC2CC2)CC[C@]314 (stereo partly drawn) [6-β-naltrexol, 17-(Cyclopropylmethyl)-4,5-epoxymorphinan-3,6beta,14-triol]
cytostasis (cell number) upon co-administration with calcitriol ([2]; A549 cells, 10 nM 6BN co-administered with calcitriol, 48 hours): significant reduction in cytostasis
cytostasis (cell number) upon co-administration with calcitriol ([2]; A549 cells, 10 μM 6BN co-administered with calcitriol, 48 hours): not observed
cell viability ([2]; A549 cells, 0.001-1 μM, 48 hours, trypan blue): No reduction in cell viability
cytostasis (cell number) ([2]; A549 lung cancer cells, 0.001-1 μM, 48 hours, single agent): selective reduction in cytotostasis in lung cancer cells
cytostasis (cell number) upon co-administration with calcitriol ([1]; HCT116 cells, 10 nM 6BN co-administered with calcitriol): not observed
cell viability ([1]; HCT116 cells, 0.001-1 μM, trypan blue): No reduction in cell viability
cytostasis (cell number) ([1]; HCT116 colorectal cancer cells, 0.001-1 μM, single agent, effect at higher concentrations): less pronounced decrease in cytotostasis
